# Earlier results in publication PMC8287028 (Frontiers in Veterinary Science, 2021).
# System: Factor Xa
# Design: method as in PMID 35442563
# Conditions: 19 sick dogs, post-treatment monitoring; cited from earlier work
smiles,measurement,value
O=C(NC[C@H]1CN(c2ccc(N3CCOCC3=O)cc2)C(=O)O1)c1ccc(Cl)s1 [rivaroxaban],dogs with aXa activities below the range associated with positive clinical outcomes in humans,8/19
same,dogs with aXa activities exceeding the range associated with positive clinical outcomes in humans,8/19
